The numbers were not newly measured in publication PMC6151961 (Journal of Enzyme Inhibition and Medicinal Chemistry, 2018), which cites them from elsewhere.

In this data set the target is CA IX (Homo sapiens, UniProt Q16790). The conditions noted are these: cited from earlier work; for pKi: read-out: Ki.
Where [1] appears, read: library compounds (IDs A…, B…), observed Ki towards CA IX, ref ChEMBL and BindingDB.
[2] abbreviates: library compounds (IDs A…, B…), values equal log10 of Ki in nM, ref ChEMBL and BindingDB.
Setting [3] is: library compounds (IDs A…, B…) of Table S4, ref ChEMBL and BindingDB.
[4] abbreviates: library compounds (IDs A..., B...), values equal log10 of Ki in nM, ref ChEMBL, BindingDB.
[5] abbreviates: observed Ki of library compounds (IDs A..., B...), ref ChEMBL, BindingDB.
Where [6] appears, read: observed Ki of library compounds (IDs A…, B…), ref ChEMBL and BindingDB.

pKi: −log10 of the molar value. Read-outs that look alike come from different tables or passages of the source.

The term pKi denotes −log10 of the Ki, conventionally taken in molar units. Take `COc1ccc2c(c1)CCN(S(N)(=O)=O)[C@H]2c1ccccc1` [A1457]: under setting [1], the pKi was 7.11. In addition, under setting [2], the “log10 of Ki in nM” value is listed as 1.892.

Take `NS(=O)(=O)c1ccc([C@H]2c3ccc(O)cc3CCN2S(N)(=O)=O)cc1` [A0504, reference compound]: the “log10 of Ki in nM” value is 0.898 and the negative logarithm of the Ki (pKi) is 8.10.

In the case of `CCCN(CCC)S(=O)(=O)c1ccc(C(=O)N[C@H](CO)C(=O)O)cc1` [B0340], the “log10 of Ki in nM” value (experimental pKi towards CA IX, library compounds, ref ChEMB database (ID A), BindingDB (ID B)) is on record as 1.431. Besides, the negative logarithm of the Ki (pKi) (observed Ki towards CA IX, library compounds, ref ChEMB database (ID A), BindingDB (ID B)) is 7.57.

For the molecule `Cc1ccc2nc(S)n(-c3ccc(S(N)(=O)=O)cc3)c(=O)c2c1` [B0260], the pKi under setting [3] is 7.80. Also, under setting [2], the “log10 of Ki in nM” value was 1.204.

Consider `Cc1cc(=O)oc2cc(O[C@H]3O[C@@H](C)[C@H](O)[C@H](O)[C@H]3O)ccc12` [B0671], for which the “log10 of Ki in nM” value is on record as 2.303 and the pKi was 6.70.

As to `CC(=O)OC[C@@H]1O[C@H](O[C@@H]2[C@@H](OC(C)=O)[C@H](OC(C)=O)[C@H](n3cc(COC(=O)c4ccc(S(N)(=O)=O)cc4)nn3)O[C@@H]2COC(C)=O)[C@H](OC(C)=O)[C@H](OC(C)=O)[C@H]1OC(C)=O` [B0633], the “log10 of Ki in nM” value is reported as 2.114 and the pKi is 6.89.

Take `NS(=O)(=O)c1ccc(N2C(=O)CS[C@@H]2c2cccc(F)c2)cc1` [A1295]: the pKi under setting [1] was 7.27. The “log10 of Ki in nM” value under setting [2] was 1.725.

Take `CN1N[C@@H](S(N)(=O)=O)S[C@H]1NC(=O)c1c(F)c(F)c(F)c(F)c1F` [B0350]: under setting [4], the “log10 of Ki in nM” value is listed as 1.462. For the same molecule, the pKi under setting [5] was 7.54.

`CC(=O)OC[C@@H]1O[C@@H](NS(N)(=O)=O)CC[C@H]1OC(C)=O` [B0190]: the “log10 of Ki in nM” value under setting [2] is listed as 0.954. The negative logarithm of the Ki (pKi) under setting [6] is 8.05.

Turning to `NS(=O)(=O)c1ccc([C@H]2C(Oc3ccccc3)=NON2O)cc1` [A1359], under setting [1], the negative logarithm of the Ki (pKi) is 7.19. Further, the “log10 of Ki in nM” value under setting [2] is listed as 1.806.

Take `COc1ccc2c(c1)CCN(S(N)(=O)=O)[C@H]2c1ccc(C#N)cc1` [A0427]: under setting [3], the pKi was 8.15. Further, the “log10 of Ki in nM” value under setting [2] is 0.845.

In the case of `NS(=O)(=O)c1ccc(OC2=NON(O)[C@@H]2S(=O)(=O)c2ccccc2)cc1` [A0390], the negative-log Ki (pKi) under setting [1] was 8.19. Further, the “log10 of Ki in nM” value under setting [2] is recorded as 0.806.

For `NS(=O)(=O)c1ccc(CCNS(=O)(=O)[C@@H]2O[C@@H](C(=O)O)[C@@H](O)[C@@H](O)[C@@H]2O)cc1` [B0584], the negative-log Ki (pKi) under setting [3] was 7.02. Moreover, the “log10 of Ki in nM” value under setting [2] is on record as 1.982.

`CC(=O)OC[C@@H]1O[C@@H](S(=O)(=O)Cc2nnn(-c3ccc(S(N)(=O)=O)cc3)c2I)[C@H](OC(C)=O)[C@@H](OC(C)=O)[C@@H]1OC(C)=O` [B0586]: the “log10 of Ki in nM” value is listed as 1.987 and the negative logarithm of the Ki (pKi) was 7.01.

On to `CCOc1ccc2c(c1)CCN(S(N)(=O)=O)[C@H]2c1ccc(S(N)(=O)=O)cc1` [A1289], for which the “log10 of Ki in nM” value was 1.717 and the negative logarithm of the Ki (pKi) is 7.28.

For `N#C/C(=C/C=C\c1ccccc1)C(=O)Nc1ccc(S(N)(=O)=O)cc1` [B0085], the “log10 of Ki in nM” value under setting [4] was 0.690. Moreover, under setting [5], the pKi was 8.31.

As to `CCO[C@H]1Oc2ccccc2C(=O)[C@@H]1/C=N\c1ccc(S(=O)(=O)Nc2nccs2)cc1` [B0283], the negative-log Ki (pKi) under setting [3] was 7.70. Under setting [2], the “log10 of Ki in nM” value is 1.301.

Take `N#Cc1ccc(-c2cs/c(=N\c3ccc(S(N)(=O)=O)cc3)n2C2CCCCC2)cc1` [B0361]: the “log10 of Ki in nM” value under setting [2] is recorded as 1.477. In addition, the pKi under setting [6] was 7.52.

Turning to `CCCN(CCC)S(=O)(=O)c1ccc(C(=O)N[C@H](CS)C(N)=O)cc1` [B0344], the pKi under setting [3] was 7.55. In addition, the “log10 of Ki in nM” value under setting [2] is on record as 1.447.

For the molecule `NS(=O)(=O)c1cc(-c2nnc(-c3ccccc3)s2)c(Cl)cc1Cl` [B0246], the pKi under setting [1] is 7.85. Besides, the “log10 of Ki in nM” value under setting [2] is 1.146.

Consider `Cn1nc(S(N)(=O)=O)s/c1=N/C(=O)c1c(F)c(F)cc(F)c1F` [B0221], for which the “log10 of Ki in nM” value is 1.021 and the pKi is 7.98.
